# Reference: article PMC2156146 (The Journal of Cell Biology, 1999)
# Target: T1, SRβ (30-kD β-subunit of the SRP receptor) in SR liposomes (Canis lupus, UniProt A0A8I3Q3L6)
# T1 sequence (A0A8I3Q3L6 1-271): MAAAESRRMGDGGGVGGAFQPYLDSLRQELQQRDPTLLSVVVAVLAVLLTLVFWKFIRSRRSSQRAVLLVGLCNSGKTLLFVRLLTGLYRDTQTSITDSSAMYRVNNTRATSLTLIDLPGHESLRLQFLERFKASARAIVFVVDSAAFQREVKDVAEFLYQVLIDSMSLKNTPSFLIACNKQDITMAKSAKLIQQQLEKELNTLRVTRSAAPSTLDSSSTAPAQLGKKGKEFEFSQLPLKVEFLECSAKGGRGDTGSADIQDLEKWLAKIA
# T1 sequence (P06625 1-638 partner): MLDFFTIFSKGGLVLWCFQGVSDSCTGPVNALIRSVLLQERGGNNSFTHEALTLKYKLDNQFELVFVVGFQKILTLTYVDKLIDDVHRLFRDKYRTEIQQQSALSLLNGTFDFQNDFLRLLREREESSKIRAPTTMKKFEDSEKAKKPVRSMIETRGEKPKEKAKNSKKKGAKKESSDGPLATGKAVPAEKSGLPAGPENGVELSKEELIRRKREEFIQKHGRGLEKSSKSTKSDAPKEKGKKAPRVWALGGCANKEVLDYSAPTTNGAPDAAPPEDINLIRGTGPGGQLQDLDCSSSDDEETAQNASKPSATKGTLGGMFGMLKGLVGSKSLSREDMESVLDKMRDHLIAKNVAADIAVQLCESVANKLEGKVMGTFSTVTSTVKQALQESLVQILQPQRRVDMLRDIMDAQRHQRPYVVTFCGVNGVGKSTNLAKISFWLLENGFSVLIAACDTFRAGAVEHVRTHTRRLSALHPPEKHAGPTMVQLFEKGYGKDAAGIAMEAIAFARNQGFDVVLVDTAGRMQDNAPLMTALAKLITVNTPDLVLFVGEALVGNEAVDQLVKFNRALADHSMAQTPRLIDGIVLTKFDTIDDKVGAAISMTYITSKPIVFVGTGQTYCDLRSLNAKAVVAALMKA
# Assay: UV cross-linking of alpha-[…]GTP, saturation, SDS-PAGE and PhosphorImaging
# Format: binding
structure (smiles),measurement,value
Nc1nc2c(ncn2[C@@H]2O[C@H](COP(=O)(O)OP(=O)(O)OP(=O)(O)O)[C@@H](O)[C@H]2O)c(=O)[nH]1 [GTP],Kd,20 nM
